What was measured:
[1] = target: T1, serotonine transporter (SERT) receptor (Homo sapiens, UniProt P31645); assay: Binding assay SERT (h), [3H]imipramine, CHO cells; details: read-out: SERT [%]
T1 construct: expressed in transfected cells; host or cells: CHO cells
Outline: (§1)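 Detection relied on scintillation counting of bound ligand. Compounds at 1×10^−6 M were evaluated against specific binding, i.e. total binding corrected for the nonspecific fraction seen with excess unlabelled ligand.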

adrenergic α1 receptor = assay: Binding assay α1 (non-selective), [3H]prazosin, rat cerebral cortex; details: percent inhibition of control specific binding; compounds tested at 1×10^−6 M
Outline: as §1

dopaminergic D3 receptor = dopaminergic D3 receptor (Homo sapiens, UniProt P35462); assay: Binding assay D3 (h), [3H]methyl-spiperone, CHO cells; set-up: expressed in transfected cells; host or cells: CHO cells; details: read-out: D3 [%]
Sequence of dopaminergic D3 receptor (P35462 whole entry): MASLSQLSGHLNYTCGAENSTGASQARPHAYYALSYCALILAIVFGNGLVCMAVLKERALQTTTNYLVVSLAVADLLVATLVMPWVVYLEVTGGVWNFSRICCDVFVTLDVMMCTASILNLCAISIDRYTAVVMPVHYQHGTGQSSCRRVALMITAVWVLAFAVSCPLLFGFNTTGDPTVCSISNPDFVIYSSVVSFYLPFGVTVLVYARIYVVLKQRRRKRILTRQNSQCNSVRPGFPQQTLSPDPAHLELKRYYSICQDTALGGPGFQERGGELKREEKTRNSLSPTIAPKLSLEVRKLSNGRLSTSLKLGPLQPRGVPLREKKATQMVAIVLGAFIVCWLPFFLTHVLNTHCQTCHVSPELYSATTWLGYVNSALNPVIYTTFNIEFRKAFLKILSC
Outline: as §1

[2] = target: serotoninergic 5-HT6 receptor (Homo sapiens, UniProt P50406); assay: Binding assay 5-HT6 (h), [3H]LSD, CHO cells; set-up: expressed in transfected cells; host or cells: CHO cells; details: read-out: 5-HT6
Sequence of serotoninergic 5-HT6 receptor (P50406 whole entry): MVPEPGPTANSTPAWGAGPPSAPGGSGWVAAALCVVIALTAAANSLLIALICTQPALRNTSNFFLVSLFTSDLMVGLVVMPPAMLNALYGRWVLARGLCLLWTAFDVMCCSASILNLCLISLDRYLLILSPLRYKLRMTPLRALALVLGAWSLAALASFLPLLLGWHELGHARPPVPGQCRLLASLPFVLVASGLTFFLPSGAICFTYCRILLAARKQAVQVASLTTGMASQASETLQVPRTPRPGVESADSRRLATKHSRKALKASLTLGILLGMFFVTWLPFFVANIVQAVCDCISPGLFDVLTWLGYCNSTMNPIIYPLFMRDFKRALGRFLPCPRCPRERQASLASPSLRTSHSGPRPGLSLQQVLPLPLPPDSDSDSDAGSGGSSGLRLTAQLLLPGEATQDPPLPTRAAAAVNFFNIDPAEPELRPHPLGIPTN
Outline: as §1

[3] = target: serotoninergic 5-HT7 receptor (Homo sapiens, UniProt P34969); assay: Binding assay 5-HT7 (h), [3H]LSD, CHO cells; set-up: expressed in transfected cells; host or cells: CHO cells; details: read-out: 5-HT7
Sequence of serotoninergic 5-HT7 receptor (P34969 whole entry): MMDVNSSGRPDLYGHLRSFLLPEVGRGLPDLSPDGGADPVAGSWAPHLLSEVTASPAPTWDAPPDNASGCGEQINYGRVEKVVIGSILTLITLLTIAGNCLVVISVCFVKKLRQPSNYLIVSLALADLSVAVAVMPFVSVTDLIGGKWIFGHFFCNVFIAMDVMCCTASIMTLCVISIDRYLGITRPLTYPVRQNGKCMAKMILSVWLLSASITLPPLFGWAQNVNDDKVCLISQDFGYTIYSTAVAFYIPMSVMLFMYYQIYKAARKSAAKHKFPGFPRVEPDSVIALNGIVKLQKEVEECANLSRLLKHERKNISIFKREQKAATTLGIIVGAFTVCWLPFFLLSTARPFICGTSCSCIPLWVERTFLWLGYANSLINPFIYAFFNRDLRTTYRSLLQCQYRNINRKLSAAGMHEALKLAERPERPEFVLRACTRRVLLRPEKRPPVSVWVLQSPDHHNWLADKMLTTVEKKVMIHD
Outline: as §1

dopaminergic D2 receptor = dopaminergic D2 receptor (Homo sapiens, UniProt P14416); assay: Binding assay D2S (h), [3H]methyl-spiperone, HEK-293 cells; set-up: expressed in transfected cells; host or cells: HEK-293 cells; details: read-out: D2 [%]
Sequence of dopaminergic D2 receptor (P14416 1-414 isoform P14416-2): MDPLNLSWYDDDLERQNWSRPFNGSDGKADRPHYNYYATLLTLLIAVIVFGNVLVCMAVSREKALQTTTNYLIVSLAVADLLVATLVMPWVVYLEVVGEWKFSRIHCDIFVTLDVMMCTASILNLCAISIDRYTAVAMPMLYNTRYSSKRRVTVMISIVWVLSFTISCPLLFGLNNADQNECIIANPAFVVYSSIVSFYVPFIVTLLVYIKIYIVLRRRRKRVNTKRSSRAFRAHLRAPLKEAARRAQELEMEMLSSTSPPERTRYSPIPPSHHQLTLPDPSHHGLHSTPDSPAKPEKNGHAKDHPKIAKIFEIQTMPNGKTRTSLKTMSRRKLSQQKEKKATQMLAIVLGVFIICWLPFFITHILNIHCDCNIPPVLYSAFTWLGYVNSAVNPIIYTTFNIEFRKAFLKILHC
Outline: as §1

[4] = target: T2, serotoninergic 5-HT1A receptor (Homo sapiens, UniProt P08908); assay: Binding assay 5-HT1A (h), [3H]8-OH-DPAT, HEK-293 cells; set-up: expressed in transfected cells; host or cells: HEK-293 cells; details: read-out: 5-HT1A
T2 sequence (P08908 1-422): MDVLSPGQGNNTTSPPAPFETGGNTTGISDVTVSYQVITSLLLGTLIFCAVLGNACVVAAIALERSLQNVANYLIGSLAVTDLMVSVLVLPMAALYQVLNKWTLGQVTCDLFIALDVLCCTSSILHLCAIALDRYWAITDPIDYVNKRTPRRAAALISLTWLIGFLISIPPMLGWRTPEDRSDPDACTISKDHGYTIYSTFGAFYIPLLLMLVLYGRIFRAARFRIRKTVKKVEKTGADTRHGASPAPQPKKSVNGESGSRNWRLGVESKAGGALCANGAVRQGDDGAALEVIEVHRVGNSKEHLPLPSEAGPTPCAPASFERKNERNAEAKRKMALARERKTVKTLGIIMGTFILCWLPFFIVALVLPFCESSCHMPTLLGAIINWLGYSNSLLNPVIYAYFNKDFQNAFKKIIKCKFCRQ
Outline: as §1

[5] = target: serotoninergic 5-HT2A receptor (Homo sapiens, UniProt P28223); assay: Binding assay 5-HT2A (h), [3H]ketanserin, HEK-293 cells; set-up: expressed in transfected cells; host or cells: HEK-293 cells; details: read-out: 5-HT2A
Sequence of serotoninergic 5-HT2A receptor (P28223 whole entry): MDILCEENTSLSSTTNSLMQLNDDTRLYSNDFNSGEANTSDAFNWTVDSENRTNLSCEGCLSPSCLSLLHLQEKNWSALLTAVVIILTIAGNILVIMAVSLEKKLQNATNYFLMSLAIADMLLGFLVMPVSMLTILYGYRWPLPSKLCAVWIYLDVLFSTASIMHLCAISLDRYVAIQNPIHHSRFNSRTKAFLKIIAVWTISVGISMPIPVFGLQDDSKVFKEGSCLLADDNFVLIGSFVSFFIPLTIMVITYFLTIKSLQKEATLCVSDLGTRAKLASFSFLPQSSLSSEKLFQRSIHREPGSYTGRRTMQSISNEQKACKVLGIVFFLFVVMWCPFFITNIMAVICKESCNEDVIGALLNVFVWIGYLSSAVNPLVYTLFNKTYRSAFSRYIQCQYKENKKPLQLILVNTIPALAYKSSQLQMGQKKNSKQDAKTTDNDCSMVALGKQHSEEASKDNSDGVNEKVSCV
Outline: as §1

T1 sequence (P31645 whole entry): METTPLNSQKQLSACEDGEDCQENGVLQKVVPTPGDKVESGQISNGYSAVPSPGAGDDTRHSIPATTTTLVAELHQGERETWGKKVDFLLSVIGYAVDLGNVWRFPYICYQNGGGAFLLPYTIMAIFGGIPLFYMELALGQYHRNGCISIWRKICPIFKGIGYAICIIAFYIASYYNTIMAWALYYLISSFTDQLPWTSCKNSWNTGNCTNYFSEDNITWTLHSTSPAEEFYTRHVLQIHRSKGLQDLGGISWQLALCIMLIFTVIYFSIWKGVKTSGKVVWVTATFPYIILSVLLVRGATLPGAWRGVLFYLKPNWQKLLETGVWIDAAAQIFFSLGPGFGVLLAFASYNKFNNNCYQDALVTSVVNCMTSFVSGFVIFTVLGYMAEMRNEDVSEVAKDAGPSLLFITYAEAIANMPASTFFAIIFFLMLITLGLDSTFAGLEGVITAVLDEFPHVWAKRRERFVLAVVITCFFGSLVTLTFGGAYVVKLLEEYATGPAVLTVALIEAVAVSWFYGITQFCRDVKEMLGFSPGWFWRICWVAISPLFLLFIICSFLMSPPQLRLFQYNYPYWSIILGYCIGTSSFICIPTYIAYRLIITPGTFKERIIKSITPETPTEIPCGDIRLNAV

SMILES | inhibition at 1 µM [1] | α1 [%] (adrenergic α1 receptor) | inhibition at 1 µM (dopaminergic D3 receptor) | inhibition at 1 µM [2] | inhibition at 1 µM [3] | inhibition at 1 µM (dopaminergic D2 receptor) | inhibition at 1 µM [4] | inhibition at 1 µM [5]
O=S(=O)(NCCCN1CCC(c2noc3cc(F)ccc23)CC1)c1ccc(OC(F)(F)F)cc1 [Compound 336, N-[3-[4-(6-Fluoro-1,2-benzoxazol-3-yl)piperidin-1-yl]propyl]-4-(trifluoromethoxy)-benzenesulphonamide] | 41% | 107% | 96% | 92% | 92% | 97% | 61% | 100%
O=S(=O)(NCCCCN1CCN(c2noc3ccccc23)CC1)c1ccc(Cl)c(Cl)c1 [Compound 93, N-[4-[4-(1,2-Benzoxazol-3-yl)piperazin-1-yl]butyl]-3,4-dichlorobenzenesulphonamide] | 0% | 97% | 86% | 92% | 88% | 98% | 48% | 90%
Cn1ccc2ccc(S(=O)(=O)NCCCCN3CCC(c4noc5cc(F)ccc45)CC3)cc21 [Compound 311, N-[4-[4-(6-Fluoro-1,2-benzoxazol-3-yl)piperidin-1-yl]butyl]-1-methyl-indole-6-sulphonamide] | 34% | 107% | 101% | 99% | 95% | 105% | 49% | 105%
O=C1COc2c(cccc2N2CCN(CCCCNS(=O)(=O)c3ccc4ccccc4c3)CC2)N1 [Compound 427, N-[4-[4-(3-oxo-4H-1,4-benzoxazin-8-yl)piperazin-1-yl]butyl]naphthalene-2-sulphonamide] | 13% | 86% | 104% | 36% | 98% | 83% | 84% | 49%
O=S(=O)(NCCCCN1CCN(c2cccc3c2OCCO3)CC1)c1cccc(F)c1 [Compound 388, N-[4-[4-(2,3-Dihydro-1,4-benzodioxin-5-yl)piperazin-1-yl]butyl]-3-fluorobenzenesulphonamide] | -28% | 91% | 83% | -20% | 90% | 50% | 92% | 19%
O=S(=O)(NCCCN1CCC(c2noc3cc(F)ccc23)CC1)c1ccc2c(c1)OCO2 [Compound 354, N-[3-[4-(6-Fluoro-1,2-benzoxazol-3-yl)piperidin-1-yl]propyl]-1,3-benzodioxole-5-sulphonamide] | 6% | 103% | 88% | 86% | 96% | 83% | 59% | 86%
O=S(=O)(NCCCN1CCC(c2noc3cc(F)ccc23)CC1)c1cccs1 [Compound 339, N-[3-[4-(6-Fluoro-1,2-benzoxazol-3-yl)piperidin-1-yl]propyl]thiophene-2-sulphonamide] | 3% | 108% | 100% | 89% | 89% | 96% | 76% | 82%
COc1cccc(S(=O)(=O)NCCCN2CCC(c3noc4cc(F)ccc34)CC2)c1 [Compound 332, N-[3-[4-(6-Fluoro-1,2-benzoxazol-3-yl)piperidin-1-yl]propyl]-3-methoxybenzenesulphonamide] | 18% | 107% | 96% | 95% | 64% | 83% | 71% | 97%
O=S(=O)(NCCCCN1CCN(c2cccc3c2OCCO3)CC1)c1ccc(Cl)s1 [Compound 398, 5-Chloro-N-[4-[4-(2,3-dihydro-1,4-benzodioxin-5-yl)piperazin-1-yl]butyl]thiophene-2-sulphonamide] | -7% | 97% | 90% | 3% | 97% | 73% | 107% | 38%
O=S(=O)(NCCCN1CCC(c2noc3cc(F)ccc23)CC1)c1cccc(C(F)(F)F)c1 [Compound 335, N-[3-[4-(6-Fluoro-1,2-benzoxazol-3-yl)piperidin-1-yl]propyl]-3-(trifluoromethyl)-benzenesulphonamide] | -25% | 101% | 93% | 93% | 88% | 105% | 54% | 97%
O=S(=O)(NCCCN1CCN(c2cccc3c2OCCO3)CC1)c1ccc2c(c1)CCO2 [Compound 417, N-[3-[4-(2,3-Dihydro-1,4-benzodioxin-5-yl)piperazin-1-yl]propyl]-2,3-dihydrobenzofuran-5-sulphonamide] | -11% | 73% | 67% | 24% | 62% | 68% | 100% | -48%
Cc1cccc(S(=O)(=O)NCCCN2CCN(c3cccc4c3OCCO4)CC2)c1 [Compound 414, N-[3-[4-(2,3-Dihydro-1,4-benzodioxin-8-yl)piperazin-1-yl]propyl]-3-methylbenzenesulphonamide] | 18% | 88% | 81% | -15% | 94% | 48% | 98% | 76%
N#Cc1ccc(S(=O)(=O)NCCCCN2CCC(c3noc4cc(F)ccc34)CC2)cc1 [Compound 305, 4-Cyano-N-[4-[4-(6-fluoro-1,2-benzoxazol-3-yl)piperidin-1-yl]butyl]benzenesulphonamide] | -18% | 99% | 103% | 78% | 85% | 88% | 58% | 96%
CC(C)(C)c1ccc(S(=O)(=O)NCCCN2CCC(c3noc4cc(F)ccc34)CC2)cc1 [Compound 333, 4-tert-Butyl-N-[3-[4-(6-fluoro-1,2-benzoxazol-3-yl)piperidin-1-yl]propyl]benzenesulphonamide] | 5% | 106% | 89% | 93% | 92% | 92% | 42% | 99%
O=S(=O)(NCCCCN1CCN(c2cccc3c2OCCO3)CC1)c1cc2ccc(Cl)cc2s1 [Compound 401, 6-Chloro-N-[4-[4-(2,3-dihydro-1,4-benzodioxin-5-yl)piperazin-1-yl]butyl]benzothiophene-2-sulphonamide] | -8% | 90% | 95% | 27% | 91% | 84% | 103% | 79%
O=S(=O)(NCCCN1CCC(c2noc3cc(F)ccc23)CC1)c1csc2ccccc12 [Compound 346, N-[3-[4-(6-Fluoro-1,2-benzoxazol-3-yl)piperidin-1-yl]propyl]benzothiophene-3-sulphonamide] | 17% | 103% | 93% | 95% | 87% | 100% | 51% | 97%
O=C1COc2c(cccc2N2CCN(CCCCNS(=O)(=O)c3cccc(F)c3)CC2)N1 [Compound 211, 3-Fluoro-N-[4-[4-(3-oxo-4H-1,4-benzoxazin-8-yl)piperazin-1-yl]butyl]benzenesulphonamide] | 33% | 80% | 102% | 32% | 81% | 81% | 86% | 32%
